Data on six compounds can be found in patent US8765690B2, “Treatment of cancer with glufosfamide in patients not receiving insulin therapy” (Threshold Pharmaceuticals, Inc., priority 2007, dated 2014).

The test system of assay [1] is gemcitabine resistant metastatic pancreatic cancer. Kind of assay: Phase 3 clinical trial of glufosfamide versus best supportive care, overall survival. Type of assay: in vivo, human. As to conditions: for Actual overall survival: individual diabetic patient, named GLD given orally in combination with glufosfamide 4500 mg/m^2 over 6 hours once every 3 weeks; for relative risk for overall survival in Group 1 and Group 2 patients: glufosfamide vs BSC. As to the method:
Glufosfamide is a prodrug of an alkylating agent useful in the treatment of cancer. A multi-center, randomized, open-label phase 3 clinical trial was conducted to evaluate the safety and efficacy of glufosfamide in treating gemcitabine resistant metastatic pancreatic cancer as measured by overall survival compared to BSC (best supportive care). Three hundred and three patients were randomized to the trial: 148 patients were randomized to the glufosfamide arm (n=148, Group 1) and 155 to BSC (n=155, Group 2).
Patients in Group 1 were administered glufosfamide for up to 42 weeks. Glufosfamide was administered intravenously over 6 hours once every 3 weeks at 4500 mg/m^2 for up to 14 doses.
One-quarter of the dose was infused over 30 minutes and the remainder over the following five and one-half hours.
To assess the efficacy of glufosfamide treatment, patients in Group 1 and Group 2 were not administered any medication known to have antitumor effects other than glufosfamide, e.g., the patients were not administered any other chemotherapy or systemic cytotoxic/cytostatic agents. However, other appropriate supportive measures and concomitant medications not known to have antitumor effects, such as analgesics, antibiotics, transfusions, hematopoietic colony-stimulating factors (as therapy but not as prophylaxis), erythropoietin, and megestrol acetate for appetite stimulation were administered when appropriate.
Tumor assessment was performed at baseline and once every 6 weeks for the first 24 weeks and then once every 9 weeks. The primary efficacy indicator was the overall survival in Group 1 compared to that in Group 2.
Seven diabetic patients (Group 1A) having gemcitabine resistant pancreatic cancer were treated with glufosfamide for 2-11 cycles in combination with various glucose lowering drugs (GLDs) other than insulin (see Table 2 below). Glufosfamide was administered intravenously over 6 hours, once every 3 weeks, at 4500 mg/m^2. The GLD was administered orally, once every day or qd, […] prior to the first glufosfamide administration; except that, the GLD was administered to patient no. 6 three times daily or tid. […] Tumor assessment was performed at baseline and once every 6 weeks for the first 24 weeks and then once every 9 weeks. Efficacy outcomes were evaluated based on comparing the overall median survival in Group 1A with that in Group 2A. The median overall survival in the Group 1A patients was 418 days (95% CI; 85 days-643 days) compared to 84 days (95% CI; 45 days-102 days) for those in group 2A (FIG. 3).

For a further assay, the system named is MiaPaCa-2-RFP tumor. The experiment in a line: Surgical orthotopic implantation MiaPaCa-2-RFP pancreatic tumor model in nude mice, survival. Format: in vivo, NCr nu/nu mice. As for the experimental part:
A total of sixty male NCr nu/nu mice, 5-6 weeks old, were used in the study. Original breeding pairs were purchased from Taconic, Germantown, N.Y. Test animals were bred and maintained in a HEPA filtered environment for the experiment. Cages, food and bedding were autoclaved. The animal diets were obtained from PMI Nutrition International Inc. (Brentwood, Mo.).
RFP gene transduction of MiaPaCa-2 cells: For RFP gene transduction, 20% confluent MiaPaCa-2 cells (ATCC, Rockville, Md.) were incubated with a 1:1 precipitated mixture of retroviral supernatants of PT67 cells and RPMI 1640 for 72 h. Fresh medium was replenished at this time. MiaPaCa-2 cells were harvested by trypsin-EDTA 72 h posttransduction and subcultured at a ratio of 1:15 into selective medium that contained 200 μg/ml G418. The level of G418 was increased to 1000 μg/ml stepwise. The brightest MiaPaCa-2 cell clones expressing RFP were selected, combined, and then amplified and transferred by conventional culture methods.
Subcutaneous Xenografts: Tumor stocks were made by subcutaneously injecting MiaPaCa-2-RFP cells at a concentration of 5×10^6 cells/200 μl into the flank of nude mice. see e.g., Bouvet et al. Cancer Res., 2002, 62, 1534-40 incorporated herein by reference. The strong RFP expression of tumors grown in the subcutis of mice was confirmed before harvest. The tumor tissues harvested from s.c growth in nude mice were inspected, and any grossly necrotic or suspected necrotic or non-RFP tumor tissues were removed. Tumor tissues were subsequently cut into small fragments of approximately 2 mm^3. […]
Statistical methods used in efficacy evaluation: Tumor volumes and tumor weights were compared using the Student's t-test with an α=0.05. Metastatic frequency of all groups were analyzed with Fisher's exact test with an α=0.05. Comparison of animal survival time between each treatment group and untreated control was analyzed using the Log-rank analysis with an α=0.05.

Where “and” joins values, the source holds several entries; their conditions need not be identical. Equal values may be shown once. Where a name gives a salt, the structure may show the parent alone.

As for `Cc1cnc(C(=O)NCCc2ccc(S(=O)(=O)NC(=O)NC3CCCCC3)cc2)cn1` [Glipizide], in assay [1], the Actual overall survival is listed as 418.

Consider `Cc1ccc(S(=O)(=O)NC(=O)NN2CC3CCCC3C2)cc1` (stereo not shown) [Gliclazide], for which, in assay [1], the Actual overall survival was 145 and 476+.

In the case of `CN(CCOc1ccc(CC2SC(=O)NC2=O)cc1)c1ccccn1` (stereo not shown) [Rosiglitazone maleate], the Actual overall survival in assay [1] is recorded as 479.

As to `COc1ccc(Cl)cc1C(=O)NCCc1ccc(S(=O)(=O)NC(=O)NC2CCCCC2)cc1` [Glibenclamide], the Actual overall survival in assay [1] is 85 and 643.

Take `O=P(NCCCl)(NCCCl)O[C@@H]1O[C@H](CO)[C@@H](O)[C@H](O)[C@H]1O` [glufosfamide, beta-D-glucosyl-ifosfamide mustard]: the median overall survival in the assay with MiaPaCa-2-RFP tumor (glufosfamide 50 mg/kg i.v. qd x 7 alone) turned out to be 26 days; in the assay on MiaPaCa-2-RFP tumor (glufosfamide 50 mg/kg i.v. qd x 7 in combination with glimepiride 12 mg/kg p.o. qd x 14, log rank p<0.01), 35 days; in assay [1] (Group 1 (n=148), glufosfamide 4500 mg/m^2 i.v. over 6 hours once every 3 weeks, all randomized patients) it was 105 days; in assay [1] (Group 1 patients (n=123) not administered insulin prior to first glufosfamide administration), 115 days; in assay [1] (seven diabetic Group 1 patients (Group 1A) on glufosfamide plus a glucose lowering drug other than insulin, no prior insulin) it was 418 days. In addition, the “survival improvement compared to glufosfamide administered alone” value in the assay with MiaPaCa-2-RFP tumor (glufosfamide 50 mg/kg in combination with glimepiride 12 mg/kg, FIG. 4) was “more effective in extending survival”. Further, the “relative risk for overall survival in Group 1 and Group 2 patients” value in assay [1] (diabetic patients receiving glucose lowering drug other than insulin, p=0.020) stood at 0.24; in assay [1] (proportional hazards model stratified by KPS, all patients, p=0.187) it was 0.848; in assay [1] (patients not administered insulin prior, p=0.048), 0.761. Also, the “benefit from the administration of glufosfamide” value in assay [1] (patients receiving a glucose lowering drug other than insulin, compared with patients not receiving such drugs) is recorded as “more benefit”; in assay [1] (patients receiving insulin), “no benefit or less benefit”.

In the case of `CCC1=C(C)CN(C(=O)NCCc2ccc(S(=O)(=O)NC(=O)N[C@H]3CC[C@H](C)CC3)cc2)C1=O` [Glimepiride], in assay [1], the Actual overall survival stood at 54.
